Measured values as given in the NIST ThermoML archive (doi:10.1016/j.jct.2011.10.014).
Numbers after ± are expanded uncertainties.

Conditions: 101.33 kPa, Crystal, Vacuum adiabatic calorimetry

O=C([O-])[O-].[Pb+2] [lead(II) carbonate]
molar entropy (5 K): 0.0215 ± 0.015 J/K/mol | molar entropy (10 K): 0.2771 ± 0.018 J/K/mol | molar entropy (15 K): 1.17 ± 0.027 J/K/mol | molar entropy (20 K): 2.745 ± 0.038 J/K/mol | molar entropy (25 K): 4.823 ± 0.048 J/K/mol | molar entropy (30 K): 7.25 ± 0.082 J/K/mol | molar entropy (35 K): 9.921 ± 0.09 J/K/mol | molar entropy (40 K): 12.76 ± 0.1 J/K/mol | molar entropy (45 K): 15.72 ± 0.11 J/K/mol | molar entropy (50 K): 18.76 ± 0.12 J/K/mol | molar entropy (55 K): 21.83 ± 0.13 J/K/mol | molar entropy (60 K): 24.93 ± 0.14 J/K/mol | molar entropy (65 K): 28.02 ± 0.14 J/K/mol | molar entropy (70 K): 31.09 ± 0.15 J/K/mol | molar entropy (75 K): 34.13 ± 0.16 J/K/mol | molar entropy (80 K): 37.12 ± 0.17 J/K/mol | molar entropy (85 K): 40.07 ± 0.18 J/K/mol | molar entropy (90 K): 42.97 ± 0.36 J/K/mol | molar entropy (95 K): 45.81 ± 0.37 J/K/mol | molar entropy (100 K): 48.59 ± 0.37 J/K/mol | molar entropy (110 K): 53.97 ± 0.38 J/K/mol | molar entropy (120 K): 59.11 ± 0.39 J/K/mol | molar entropy (130 K): 64.03 ± 0.4 J/K/mol | molar entropy (140 K): 68.74 ± 0.4 J/K/mol | molar entropy (150 K): 73.25 ± 0.41 J/K/mol | molar entropy (160 K): 77.6 ± 0.42 J/K/mol | molar entropy (170 K): 81.78 ± 0.42 J/K/mol | molar entropy (180 K): 85.81 ± 0.43 J/K/mol | molar entropy (190 K): 89.7 ± 0.43 J/K/mol | molar entropy (200 K): 93.46 ± 0.44 J/K/mol | molar entropy (210 K): 97.11 ± 0.45 J/K/mol | molar entropy (220 K): 100.6 ± 0.5 J/K/mol | molar entropy (230 K): 104.1 ± 0.5 J/K/mol | molar entropy (240 K): 107.4 ± 0.5 J/K/mol | molar entropy (250 K): 110.7 ± 0.5 J/K/mol | molar entropy (260 K): 113.9 ± 0.5 J/K/mol | molar entropy (270 K): 117 ± 0.5 J/K/mol | molar entropy (273.15 K): 118 ± 0.5 J/K/mol | molar entropy (280 K): 120.1 ± 0.5 J/K/mol | molar entropy (290 K): 123 ± 0.5 J/K/mol | molar entropy (298.15 K): 125.4 ± 0.7 J/K/mol | molar entropy (300 K): 126 ± 0.5 J/K/mol | molar entropy (310 K): 128.9 ± 0.5 J/K/mol | molar entropy (320 K): 131.7 ± 0.5 J/K/mol
